Experimental findings from paper PMC12022973, “Proteomimetic Strategy for the Modulation of Intrinsically Disordered Protein MYC” (Journal of the American Chemical Society, 2025) are described below.

Starred links: 1 amine or outer side, 2 acyl side, 3 side chain; linkers in the order of their positions; H or OH if unused. Positions of bridges follow the written chain, without caps; N, C: chain ends. Residues, ends and D or L forms follow the SMILES beside them. Chains are numbered I, II in the order given. *: point of attachment. FITC = O=C1OC2(c3ccc(O)cc3Oc3cc(O)ccc32)c2ccc(NC(=S)*)cc21; X1 = c1cc(C[*:1])ccc1COCc1ccc(C[*:2])cc1; βAla = NCCC(=O)O

In assay [1] the target is T1, recombinant human MYC^353–437 protein (His6-MYC^353–437) (Homo sapiens, UniProt P01106).
T1 construct: recombinant human MYC^353–437 protein; made in house; host or cells: E. coli BL21(DE3), pET151-D-TOPO-cMyc vector
T1 sequence (P01106 368-452): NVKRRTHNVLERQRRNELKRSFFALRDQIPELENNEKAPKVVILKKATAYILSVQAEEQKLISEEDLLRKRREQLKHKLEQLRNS
In words: Fluorescence polarization direct binding of fluorescein-labeled CHDs to His6-MYC353-437. Conditions: FP direct binding; 15 nM FITC-labeled peptide; His6-MYC serial dilutions from 10 μM; 1X PBS, 1 mM DTT, 5% glycerol, 0.1% pluronic acid, pH 6.7; 25 °C; triplicate; MYC aggregates above 5 μM; read-out: Binding Affinity MYC^353-436, Kd. The protocol:
pET151-D-TOPO-cMyc vector was kindly provided by Dr. Edward Prochownik from the
Department of Pediatrics at UPMC Children’s Hospital of Pittsburgh. Expression and purification
of Myc353-437 were performed using an established protocol with minor modifications.7 BL21(DE3)
cells were used to express recombinant Myc353-437 protein. Bacteria were grown at 37 °C to OD600
of 0.8 followed by 1 mM IPTG induction and 16-18h growth at RT. Cells were harvested via
centrifugation at 4,000 rpm at 4 °C and the pellet was resuspended in 10 mL of lysis buffer (8 M
urea, 100 mM NaH2PO4, 10 mM Tris HCl, pH 8) supplemented with protease inhibitor cocktail
(PierceTM Protease Inhibitor Tablets) and benzonase nuclease. Suspensions were sonicated on
ice using a Branson Cell Disruptor 200 and centrifuged at 12,000 rpm for 45 min at 4 °C. Clarified
lysate was applied to a column containing pre-equilibrated HisPur Ni-NTA Superflow Agarose
(ThermoFisher Scientific) for overnight at 4 °C. The resin beads were washed with 10 mL of
additional lysis buffer followed by three washes of 10 mL wash buffer (8 M urea, 100 mM
NaH2PO4, 10 mM Tris HCl, 10 mM imidazole). The target protein was eluted with elution buffer (8
M urea, 100 mM NaH2PO4, 10 mM Tris HCl, 250 mM imidazole) and buffer exchanged into 150
mM NaCl, 50 mM Tris HCl, 5% glycerol, pH 6.7. Protein was concentrated by ultra-filtration (3000
MWCO; Amicon Ultra-15 Centrifugal Filter units from EMD Millipore) followed by TEV cleavage
(1:100 w/w of protease to target protein) in 150 mM NaCl, 50 mM Tris HCl, 5% glycerol, pH 6.7
for 24 hrs at 4 °C. The cleaved protein is further purified by reverse-phase HPLC (gradient 10-60
acetonitrile/water with 0.1% TFA over 35 min) to remove TEV protease and un-cleaved protein.
Purified Myc353-437 was lyophilized and stored at -20 °C. Myc353-437 identity was characterized by
(§1) Fluorescence Polarization Binding Assay
(§2) The relative affinities of FITC-CHDMax-1 to His6-Myc353-436 and full-length His6-Max were
(§3) determined using fluorescence polarization-based direct binding assay. The polarization
(§4) experiments were performed using a DTX 880 Multimode Detector (Beckman) at 25 °C with
(§5) excitation and emission wavelengths of 485 and 525 nm, respectively. Each polarization
(§6) experiment was performed in a 96-well round bottom plate (Greiner) in assay buffer: 1X PBS, 1
(§7) mM DTT, 5% glycerol, 0.1% pluronic acid, pH 6.7. The binding affinity (KD) values reported for
(§8) each peptide are from experiments performed in triplicate. Raw values were fit to a sigmoidal
(§9) dose-response nonlinear regression model in GraphPad Prism 6.0.
(§10) All binding experiments with FITC-labeled peptides to His6-Myc353-436 or His6-Max were performed
(§11) under the same conditions. Briefly, serial dilutions of His6-Myc353-436 and His6-Max were made
(§12) from 10 μM into 15 nM of FITC-labeled peptide in assay buffer. KD was determined using the
(§13) KD1 = (RT*(1-FSB) + LST*FSB2)/FSB-LST
(§14) RT = Total concentration of His6-Myc353-436 or His6-Max
(§15) LST = Total concentration of FITC-labeled peptide
(§16) FSB = Fraction of bound FITC-labeled peptide
On the technique in general: Polarisation of emitted light reports the rotation of a fluorescent probe.

Assay [2] deals with T2, full-length His6-Max (MAX^1-160) (Homo sapiens, UniProt P61244).
T2 construct: N.B. (MAX^1-160)
T2 sequence (P61244 whole entry): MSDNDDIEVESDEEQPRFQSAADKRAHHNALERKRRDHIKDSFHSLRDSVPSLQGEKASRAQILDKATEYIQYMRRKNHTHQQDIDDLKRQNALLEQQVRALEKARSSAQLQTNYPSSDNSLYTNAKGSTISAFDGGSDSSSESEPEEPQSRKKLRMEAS
In words: Fluorescence polarization direct binding to His6-MAX. Conditions: FP direct binding; 15 nM FITC-labeled peptide; His6-MAX from 10 μM; 1X PBS, 1 mM DTT, 5% glycerol, 0.1% pluronic acid, pH 6.7; 25 °C. The protocol: as §1, §2, §3, §4, §5, §6, §7, §8, §9, §10, §11, §12, §13, §14, §15, §16

Usually Kd stands for the constant that tells how readily two partners part at equilibrium. For `CC[C@H](C)[C@H](NC(=O)[C@H](CCCCN)NC(=O)[C@H](CCC(=O)O)NC(=O)[C@H](CCCNC(=N)N)NC(=O)[C@H](CC(C)C)NC(C)=O)C(=O)N[C@@H](C)C(=O)N[C@H](C(=O)N[C@@H](CC(C)C)C(=O)N[C@@H](CCC(N)=O)C(=O)N[C@@H](Cc1c[nH]c2ccccc12)C(=O)N[C@@H](CSCc1ccc(COCc2ccc(CSC[C@H](NC(=O)[C@H](CC(C)C)NC(=O)[C@H](CCC(=O)O)NC(=O)[C@H](CCCNC(=N)N)NC(=O)[C@@H](NC(=O)[C@H](CCCNC(=N)N)NC(=O)[C@H](Cc3c[nH]c4ccccc34)NC(=O)[C@H](CCC(N)=O)NC(=O)[C@H](Cc3c[nH]cn3)NC(=O)[C@@H](NC(=O)[C@H](CCC(=O)O)NC(=O)[C@@H](NC(=O)[C@H](CCCNC(=N)N)NC(=O)[C@H](C)NC(=O)[C@H](CCC(=O)O)NC(=O)[C@H](CC(C)C)NC(C)=O)[C@@H](C)CC)[C@@H](C)O)[C@@H](C)CC)C(=O)N[C@@H](CCC(=O)O)C(N)=O)cc2)cc1)C(=O)N[C@H](C(=O)N[C@@H](CCC(=O)O)C(=O)N[C@@H](CCC(=O)O)C(=O)N[C@@H](CC(C)C)C(=O)N[C@@H](CCCNC(=N)N)C(=O)N[C@@H](CCCCN)C(N)=O)[C@@H](C)CC)[C@@H](C)O` [CHD^Max-2] (I: Ac-LEARIETHQWRIRELCE-NH2 / II: Ac-LREKIATLQWCIEELRK-NH2; linker I:16-II:11 via X1), in assay [1], the Kd worked out at 880 ± 53 nM. As to `CC[C@H](C)[C@H](NC(=O)[C@H](CCC(=O)O)NC(=O)[C@H](Cc1c[nH]c2ccccc12)NC(=O)[C@H](CCC(N)=O)NC(=O)[C@H](C)NC(=O)[C@@H](NC(=O)[C@H](CCC(=O)O)NC(=O)[C@H](C)NC(=O)[C@H](CCCCN)NC(=O)[C@H](CCCNC(=N)N)NC(=O)[C@H](CCCNC(=N)N)NC(=O)[C@H](CC(C)C)NC(C)=O)[C@@H](C)O)C(=O)N[C@@H](CCC(=O)O)C(=O)N[C@@H](CCC(=O)O)C(=O)N[C@@H](CC(C)C)C(=O)N[C@@H](CSCc1ccc(COCc2ccc(CSC[C@H](NC(=O)[C@H](Cc3c[nH]c4ccccc34)NC(=O)[C@H](CCC(N)=O)NC(=O)[C@H](CC(C)C)NC(=O)[C@@H](NC(=O)[C@H](C)NC(=O)[C@H](C)NC(=O)[C@H](CCCCN)NC(=O)[C@H](CCC(=O)O)NC(=O)[C@H](CCCNC(=N)N)NC(=O)[C@H](CC(C)C)NC(C)=O)[C@@H](C)O)C(=O)N[C@H](C(=O)N[C@@H](CCC(=O)O)C(=O)N[C@@H](CCC(=O)O)C(=O)N[C@@H](CC(C)C)C(=O)N[C@@H](CCCNC(=N)N)C(=O)N[C@@H](CCCCN)C(N)=O)[C@@H](C)CC)cc2)cc1)C(N)=O` [CHD^Max-3] (I: Ac-LREKAATLQWCIEELRK-NH2 / II: Ac-LRRKAETAQWEIEELC-NH2; linker I:11-II:16 via X1), the Kd in assay [1] is > 5000 nM. Take `CC[C@H](C)[C@H](NC(=O)[C@H](CCCCN)NC(=O)[C@H](CCC(=O)O)NC(=O)[C@H](CCCNC(=N)N)NC(=O)[C@H](CC(C)C)NC(=O)CCNC(=S)Nc1ccc2c(c1)C(=O)OC21c2ccc(O)cc2Oc2cc(O)ccc21)C(=O)N[C@@H](C)C(=O)N[C@H](C(=O)N[C@@H](CC(C)C)C(=O)N[C@@H](CCC(N)=O)C(=O)N[C@@H](Cc1c[nH]c2ccccc12)C(=O)N[C@@H](CSCc1ccc(COCc2ccc(CSC[C@H](NC(=O)[C@H](CC(C)C)NC(=O)[C@H](CCC(=O)O)NC(=O)[C@H](CCC(=O)O)NC(=O)[C@@H](NC(=O)[C@H](CCC(=O)O)NC(=O)[C@H](Cc3c[nH]c4ccccc34)NC(=O)[C@H](CCC(N)=O)NC(=O)[C@H](Cc3c[nH]cn3)NC(=O)[C@@H](NC(=O)[C@H](CCC(=O)O)NC(=O)[C@H](CC(N)=O)NC(=O)[C@H](CCCCN)NC(=O)[C@H](CCCNC(=N)N)NC(=O)[C@H](CCCNC(=N)N)NC(=O)[C@H](CC(C)C)NC(C)=O)[C@@H](C)O)[C@@H](C)CC)C(N)=O)cc2)cc1)C(=O)N[C@H](C(=O)N[C@@H](CCC(=O)O)C(=O)N[C@@H](CCC(=O)O)C(=O)N[C@@H](CC(C)C)C(=O)N[C@@H](CCCNC(=N)N)C(=O)N[C@@H](CCCCN)C(N)=O)[C@@H](C)CC)[C@@H](C)O` [FITC–CHD^Max-1] (I: {FITC-βAla}-LREKIATLQWCIEELRK-NH2 / II: Ac-LRRKNETHQWEIEELC-NH2; linker I:11-II:16 via X1): in assay [1], the Kd was determined as 350 ± 17 nM. For the same molecule, the “CHD^Max-1 Binding Affinity, Kd (MAX^1-160)” value in assay [2] is “no binding was observed”. For `CC[C@H](C)[C@H](NC(=O)[C@H](CCC(=O)O)NC(=O)[C@H](Cc1c[nH]c2ccccc12)NC(=O)[C@H](CCC(N)=O)NC(=O)[C@H](C)NC(=O)[C@@H](NC(=O)[C@H](CCC(=O)O)NC(=O)[C@H](C)NC(=O)[C@H](CCCCN)NC(=O)[C@H](CCCNC(=N)N)NC(=O)[C@H](CCCNC(=N)N)NC(=O)[C@H](CC(C)C)NC(C)=O)[C@@H](C)O)C(=O)N[C@@H](CCC(=O)O)C(=O)N[C@@H](CCC(=O)O)C(=O)N[C@@H](CC(C)C)C(=O)N[C@@H](CSCc1ccc(COCc2ccc(CSC[C@H](NC(=O)[C@H](Cc3c[nH]c4ccccc34)NC(=O)[C@H](CCC(N)=O)NC(=O)[C@H](CC(C)C)NC(=O)[C@@H](NC(=O)[C@H](C)NC(=O)[C@H](C)NC(=O)[C@H](CCCCN)NC(=O)[C@H](CCC(=O)O)NC(=O)[C@H](CCCNC(=N)N)NC(=O)[C@H](CC(C)C)NC(=O)CCNC(=S)Nc3ccc4c(c3)C(=O)OC43c4ccc(O)cc4Oc4cc(O)ccc43)[C@@H](C)O)C(=O)N[C@H](C(=O)N[C@@H](CCC(=O)O)C(=O)N[C@@H](CCC(=O)O)C(=O)N[C@@H](CC(C)C)C(=O)N[C@@H](CCCNC(=N)N)C(=O)N[C@@H](CCCCN)C(N)=O)[C@@H](C)CC)cc2)cc1)C(N)=O` [FITC–CHD^Max-3] (I: {FITC-βAla}-LREKAATLQWCIEELRK-NH2 / II: Ac-LRRKAETAQWEIEELC-NH2; linker I:11-II:16 via X1), the Kd in assay [1] is > 5000 nM.
